From patent publication US7795290B2 (Genentech, Inc., priority 2004, dated 2010)

Tests used:
Experiment in all cases: HTS ATP-utilizing enzyme assay, off-chip mobility-shift (Caliper HTS 250)
Format in all cases: biochemical
Conditions in all cases: kinase named = inhibitory activity/selectivity; test compound 10 μM; active = greater than three-sigma from mean
GSK-3-α = GSK-3-α (Homo sapiens, UniProt P49840)
Excerpt: (§1) The following procedures describe the reagent and plate preparation for a HTS of an ATP-utilizing enzyme, such as a protein kinase, run in an off-chip mobility-shift assay format. The following provides an HTS protocol for running a protein kinase HTS screen on a Caliper HTS 250 microfluidics system. The following parameters are dependent on the protein kinase used and can be determined by one skilled in the art as part of a typical assay development process. For example, the peptide substrate used can be identified from the current literature, by screening a peptide library of potential protein kinase substrates, or by other applicable means accepted in the field.
(§2) Assays to determine the kinase inhibitory activity of chemical entities of the present disclosure were performed using a Caliper HTS 250 microfluidics device, Greiner U-bottom assay plates, a Multidrop for transfer of reagents, and Biomek FX (AMNCBM03) software. Initially, 2.4 μL of a 1 mM solution of a test compound in 100% DMSO was added to a well of the Greiner U-bottom plate. A single Greiner U-bottom plate having 24×16 wells could include multiple test compounds. Next, 40 μL of 1.06× Assay Buffer was added to each well of the assay plate. Using the Biomek FX, 10 μL of 0.5 M EDTA was added by the span-8 to wells, indicated as 100% Control and 2.4 μL of 100% DMSO was added by the span-8 to wells, indicated as 0% Control. Using the Multidrop, 10 μL of 2.5× Enzyme Buffer, followed by 10 μL of 2.5× Substrate Buffer was added to each well of the assay plate. The total reaction volume in each well was 25 μL, and the concentration of the test compound was 10 μM. The assay plate was incubated for 2.5 hrs at 20° C. to 22° C. After the incubation period, using the Multidrop, 45 μL of 1.55× Termination Buffer was added to each well of the assay plate to stop the reaction. The inhibition of the ATP-utilizing enzyme, such as a particular protein kinase, was determined by measuring the ratio of the peptide substrate to phosphorylated product for each well of the assay plate using the Caliper HTS 250 system.
(§3) The use of three-sigma statistical limits represents a conservative method for declaring potential hits among targets. The three-sigma activity, as well as the mean population activity, can be different for each target enzyme. This method has an expected false positive rate, from an in-control measurement process, of […].
(§4) Each chemical entity listed in Table 2 was tested for protein kinase inhibitory activity according to the biological assays and definitions of protein kinase inhibitory activity as described herein. For each exemplary compound listed in Table 2, the inhibitory activity for at least one protein kinase according to the biological assays and definitions of protein kinase inhibitory activity as described herein is indicated.

AURORA-A = molecular target: T1, AURORA-A (Homo sapiens, UniProt O14965)
T1 sequence (O14965 1-403): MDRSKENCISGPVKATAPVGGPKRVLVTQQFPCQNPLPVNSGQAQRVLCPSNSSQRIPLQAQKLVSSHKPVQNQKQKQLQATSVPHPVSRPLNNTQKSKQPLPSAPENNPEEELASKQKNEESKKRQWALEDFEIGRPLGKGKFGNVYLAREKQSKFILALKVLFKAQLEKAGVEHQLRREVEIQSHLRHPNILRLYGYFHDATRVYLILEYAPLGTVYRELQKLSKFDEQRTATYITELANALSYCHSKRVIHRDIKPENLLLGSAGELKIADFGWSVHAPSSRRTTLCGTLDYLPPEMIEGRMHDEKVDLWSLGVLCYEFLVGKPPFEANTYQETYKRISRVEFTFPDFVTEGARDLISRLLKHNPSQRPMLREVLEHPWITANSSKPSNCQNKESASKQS
Excerpt: as §1, §2, §3, §4

DYRK2 = molecular target: T2, DYRK2 (Homo sapiens, UniProt Q92630)
T2 sequence (Q92630 1-601): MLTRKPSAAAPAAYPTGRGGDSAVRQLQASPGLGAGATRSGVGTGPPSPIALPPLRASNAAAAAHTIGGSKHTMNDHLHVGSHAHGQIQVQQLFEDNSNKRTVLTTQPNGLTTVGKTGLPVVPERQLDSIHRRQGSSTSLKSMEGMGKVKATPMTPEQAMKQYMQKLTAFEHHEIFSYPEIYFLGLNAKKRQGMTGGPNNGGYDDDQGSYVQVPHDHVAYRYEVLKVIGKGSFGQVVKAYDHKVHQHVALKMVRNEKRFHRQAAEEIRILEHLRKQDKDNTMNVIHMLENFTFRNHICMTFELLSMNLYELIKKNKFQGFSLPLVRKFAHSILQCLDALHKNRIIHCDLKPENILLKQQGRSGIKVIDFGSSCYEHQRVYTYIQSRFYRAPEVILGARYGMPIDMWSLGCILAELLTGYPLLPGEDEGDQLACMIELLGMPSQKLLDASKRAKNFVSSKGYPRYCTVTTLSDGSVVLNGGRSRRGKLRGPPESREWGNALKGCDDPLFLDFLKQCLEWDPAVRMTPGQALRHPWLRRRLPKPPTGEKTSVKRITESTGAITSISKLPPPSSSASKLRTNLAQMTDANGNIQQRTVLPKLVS
Excerpt: as §1, §2, §3, §4

AKT1 = molecular target: T3, AKT1 (Homo sapiens, UniProt P31749)
T3 construct: purchased Upstate 14-276
Summary of the method: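 AKT1 activity was measured by off-chip mobility shift (Caliper HTS 250) as the ratio of peptide substrate to phosphorylated product. Test compound was at 10 μM, with 2.5 h incubation at 20–22° C. EDTA wells served as 100% control and DMSO wells as 0%. Hits were called at three-sigma limits.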

KIT = KIT (Homo sapiens, UniProt P10721)
Excerpt: as §1, §2, §3, §4

CHEK2 = CHEK2 (Homo sapiens, UniProt O96017)
Excerpt: as §1, §2, §3, §4

ZAP70 = molecular target: T4, ZAP70 (Homo sapiens, UniProt P43403)
T4 sequence (P43403 1-619): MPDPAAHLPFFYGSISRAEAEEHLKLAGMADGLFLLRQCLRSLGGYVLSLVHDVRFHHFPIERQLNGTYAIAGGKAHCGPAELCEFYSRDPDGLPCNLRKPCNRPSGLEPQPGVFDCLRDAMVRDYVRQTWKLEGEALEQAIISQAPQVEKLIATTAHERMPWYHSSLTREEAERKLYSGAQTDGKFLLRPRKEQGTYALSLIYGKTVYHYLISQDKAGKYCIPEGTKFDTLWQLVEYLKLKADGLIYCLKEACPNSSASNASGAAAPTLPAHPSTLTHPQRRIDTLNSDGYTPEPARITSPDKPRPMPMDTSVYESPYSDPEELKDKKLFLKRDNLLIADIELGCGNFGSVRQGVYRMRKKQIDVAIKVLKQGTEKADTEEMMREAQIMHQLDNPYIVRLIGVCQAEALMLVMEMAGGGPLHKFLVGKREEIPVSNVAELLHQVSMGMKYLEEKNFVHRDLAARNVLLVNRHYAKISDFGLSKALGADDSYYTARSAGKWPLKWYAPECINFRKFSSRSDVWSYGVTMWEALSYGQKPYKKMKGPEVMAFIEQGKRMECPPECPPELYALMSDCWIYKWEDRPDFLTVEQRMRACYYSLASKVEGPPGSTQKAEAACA
Excerpt: as §1, §2, §3, §4

Chain of KIT (P10721 26-976): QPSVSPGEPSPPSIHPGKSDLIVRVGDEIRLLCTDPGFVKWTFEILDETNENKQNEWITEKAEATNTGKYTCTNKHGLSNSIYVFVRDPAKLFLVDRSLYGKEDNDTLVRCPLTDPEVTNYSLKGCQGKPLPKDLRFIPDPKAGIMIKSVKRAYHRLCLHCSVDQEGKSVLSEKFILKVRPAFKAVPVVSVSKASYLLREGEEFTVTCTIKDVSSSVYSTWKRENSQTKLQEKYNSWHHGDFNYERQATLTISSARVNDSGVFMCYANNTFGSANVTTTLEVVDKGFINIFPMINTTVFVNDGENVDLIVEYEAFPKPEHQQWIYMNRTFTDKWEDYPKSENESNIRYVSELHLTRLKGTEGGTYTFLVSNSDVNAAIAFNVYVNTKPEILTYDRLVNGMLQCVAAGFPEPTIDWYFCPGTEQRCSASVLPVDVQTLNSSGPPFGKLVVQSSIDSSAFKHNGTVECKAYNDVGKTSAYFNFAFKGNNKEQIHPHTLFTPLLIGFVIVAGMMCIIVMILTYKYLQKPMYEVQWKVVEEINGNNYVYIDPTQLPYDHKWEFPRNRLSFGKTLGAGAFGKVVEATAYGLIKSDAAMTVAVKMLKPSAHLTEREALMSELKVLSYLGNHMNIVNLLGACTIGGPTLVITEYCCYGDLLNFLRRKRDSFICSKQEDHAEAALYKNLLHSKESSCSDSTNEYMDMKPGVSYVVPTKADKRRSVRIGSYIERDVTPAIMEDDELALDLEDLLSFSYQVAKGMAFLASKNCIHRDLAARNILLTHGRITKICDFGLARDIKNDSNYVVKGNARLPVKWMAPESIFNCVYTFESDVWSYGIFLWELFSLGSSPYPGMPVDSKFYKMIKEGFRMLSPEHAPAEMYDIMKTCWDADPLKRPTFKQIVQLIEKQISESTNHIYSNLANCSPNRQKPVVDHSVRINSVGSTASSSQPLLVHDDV
Chain of GSK-3-α (P49840 whole entry): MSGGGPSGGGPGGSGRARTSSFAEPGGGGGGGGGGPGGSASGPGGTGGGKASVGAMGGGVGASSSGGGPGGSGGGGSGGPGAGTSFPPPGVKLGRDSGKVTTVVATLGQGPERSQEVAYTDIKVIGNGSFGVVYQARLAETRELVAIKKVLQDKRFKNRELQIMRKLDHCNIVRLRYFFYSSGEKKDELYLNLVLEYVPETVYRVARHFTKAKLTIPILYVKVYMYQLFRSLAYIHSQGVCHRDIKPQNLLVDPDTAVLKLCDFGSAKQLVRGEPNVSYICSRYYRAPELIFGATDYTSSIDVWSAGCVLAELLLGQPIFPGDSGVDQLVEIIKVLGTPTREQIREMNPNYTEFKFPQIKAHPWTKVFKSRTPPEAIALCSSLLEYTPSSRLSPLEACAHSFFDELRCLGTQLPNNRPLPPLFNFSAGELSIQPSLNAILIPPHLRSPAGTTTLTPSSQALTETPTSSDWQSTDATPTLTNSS
Chain of CHEK2 (O96017 whole entry): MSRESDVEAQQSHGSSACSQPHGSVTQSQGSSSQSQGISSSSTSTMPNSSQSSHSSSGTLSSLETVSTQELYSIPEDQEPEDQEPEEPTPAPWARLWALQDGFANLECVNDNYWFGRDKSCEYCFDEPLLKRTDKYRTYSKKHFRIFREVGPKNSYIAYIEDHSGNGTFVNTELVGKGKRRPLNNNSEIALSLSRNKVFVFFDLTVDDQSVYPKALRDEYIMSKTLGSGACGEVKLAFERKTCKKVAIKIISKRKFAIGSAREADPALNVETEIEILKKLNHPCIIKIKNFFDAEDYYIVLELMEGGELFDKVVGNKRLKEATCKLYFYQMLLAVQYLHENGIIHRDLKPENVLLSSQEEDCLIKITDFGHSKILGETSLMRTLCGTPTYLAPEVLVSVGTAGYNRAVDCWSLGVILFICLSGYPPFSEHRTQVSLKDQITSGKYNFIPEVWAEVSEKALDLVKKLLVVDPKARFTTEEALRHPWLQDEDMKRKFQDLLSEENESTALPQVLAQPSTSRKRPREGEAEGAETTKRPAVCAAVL
T3 sequence (P31749 whole entry): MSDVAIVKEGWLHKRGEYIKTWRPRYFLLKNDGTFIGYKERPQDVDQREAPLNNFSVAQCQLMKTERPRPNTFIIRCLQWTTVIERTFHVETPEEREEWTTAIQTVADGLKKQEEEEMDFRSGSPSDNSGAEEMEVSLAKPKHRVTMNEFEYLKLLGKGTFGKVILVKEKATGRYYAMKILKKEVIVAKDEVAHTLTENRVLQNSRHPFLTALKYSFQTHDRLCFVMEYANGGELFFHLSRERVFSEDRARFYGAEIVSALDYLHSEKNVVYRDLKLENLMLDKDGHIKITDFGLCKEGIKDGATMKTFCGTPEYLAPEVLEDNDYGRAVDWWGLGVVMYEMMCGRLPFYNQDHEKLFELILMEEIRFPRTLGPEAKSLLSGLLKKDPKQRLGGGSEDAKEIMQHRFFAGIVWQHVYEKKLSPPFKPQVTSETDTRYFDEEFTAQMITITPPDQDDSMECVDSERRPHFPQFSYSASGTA

Row | Compound | Activity (GSK-3-α) | Activity (AKT1) | Activity (KIT) | also measured
1 | COc1ccc(OC)c(-c2csc(N(Cc3ccccc3)C(=O)CCC(=O)O)n2)c1 [4-(benzyl(4-(2,5-dimethoxyphenyl)thiazol-2-yl)amino)-4-oxobutanoic acid] |  |  |  | Activity (AURORA-A): AURORA-A
2 | COc1ccc(-c2csc(N(CC(C)C)C(=O)CCC(=O)O)n2)cc1 [4-(isobutyl(4-(4-methoxyphenyl)thiazol-2-yl)amino)-4-oxobutanoic acid] |  |  |  | Activity (AURORA-A): AURORA-A; Activity (DYRK2): DYRK2
3 | O=C(c1cccs1)N(CCCN1CCOCC1)c1nc(-c2ccncc2)cs1 [N-(3-morpholinopropyl)-N-(4-(pyridin-4-yl)thiazol-2-yl)thiophene-2-carboxamide] |  | AKT1 | KIT | 
4 | CC(=O)N(CCCN1CCOCC1)c1nc(-c2ccccc2)cs1 [N-(3-morpholinopropyl)-N-(4-phenylthiazol-2-yl)acetamide] | GSK-3-α |  |  | 
5 | O=C(c1cccs1)N(CCCN1CCOCC1)c1nc(-c2ccnc(Cl)c2)cs1 [N-(4-(2-chloropyridin-4-yl)thiazol-2-yl)-N-(3-morpholinopropyl)thiophene-2-carboxamide] |  | AKT1 | KIT | 
6 | O=C(c1cccs1)N(CCCN1CCOCC1)c1nc(-c2ccc3c(c2)OCCCO3)cs1 [N-(4-(3,4-dihydro-2H-benzo[b][1,4]dioxepin-7-yl)thiazol-2-yl)-N-(3-morpholinopropyl)thiophene-2-carboxamide] |  | AKT1 | KIT | 
7 | N#Cc1cccc(-c2csc(N(CCCN3CCOCC3)C(=O)c3cccs3)n2)c1 [N-(4-(3-cyanophenyl)thiazol-2-yl)-N-(3-morpholinopropyl)thiophene-2-carboxamide] | GSK-3-α | AKT1 | KIT | 
8 | COc1ccc(-c2csc(N(CCCN3CCOCC3)C(=O)c3c(C)noc3C)n2)cc1 [N-(4-(4-methoxyphenyl)thiazol-2-yl)-3,5-dimethyl-N-(3-morpholinopropyl)isoxazole-4-carboxamide] |  |  | KIT | Activity (ZAP70): ZAP70
9 | COc1ccc(-c2csc(N(CCCN3CCOCC3)C(=O)c3ccc(SC)s3)n2)cc1 [N-(4-(4-methoxyphenyl)thiazol-2-yl)-5-(methylthio)-N-(3-morpholinopropyl)thiophene-2-carboxamide] |  |  | KIT | Activity (ZAP70): ZAP70
10 | COc1ccc(-c2csc(N(CCCN3CCOCC3)C(=O)c3ccc(C)o3)n2)cc1 [N-(4-(4-methoxyphenyl)thiazol-2-yl)-5-methyl-N-(3-morpholinopropyl)furan-2-carboxamide] |  | AKT1 | KIT | 
11 | COc1ccc(-c2csc(N(CCCN3CCOCC3)C(=O)COc3ccccc3)n2)cc1 [N-(4-(4-methoxyphenyl)thiazol-2-yl)-N-(3-morpholinopropyl)-2-phenoxyacetamide] | GSK-3-α |  |  | Activity (DYRK2): DYRK2
12 | COc1ccc(-c2csc(N(CCCN3CCOCC3)C(=O)c3ccno3)n2)cc1 [N-(4-(4-methoxyphenyl)thiazol-2-yl)-N-(3-morpholinopropyl)isoxazole-5-carboxamide] |  | AKT1 |  | Activity (AURORA-A): AURORA-A

The next lines start with results.

Row | Activity (GSK-3-α) | Activity (AKT1) | Activity (KIT) | Compound | also measured
13 | GSK-3-α |  |  | COc1ccc(OC)c(-c2csc(N(CCc3ccc(OC)c(OC)c3)C(=O)CCC(=O)O)n2)c1 [4-((3,4-dimethoxyphenethyl)(4-(2,5-dimethoxyphenyl)thiazol-2-yl)amino)-4-oxobutanoic acid] | 
14 | GSK-3-α |  |  | COc1ccc(OC)c(-c2csc(N(Cc3ccco3)C(=O)CCC(=O)O)n2)c1 [4-((4-(2,5-dimethoxyphenyl)thiazol-2-yl)(furan-2-ylmethyl)amino)-4-oxobutanoic acid] | Activity (AURORA-A): AURORA-A
15 | GSK-3-α |  |  | CCCCN(C(=O)CCC(=O)O)c1nc(-c2cc(OC)ccc2OC)cs1 [4-(butyl(4-(2,5-dimethoxyphenyl)thiazol-2-yl)amino)-4-oxobutanoic acid] | Activity (AURORA-A): AURORA-A
16 |  | AKT1 |  | COc1ccc(OC)c(-c2csc(N(CCCN(C)C)C(=O)c3ccccc3F)n2)c1 [N-(4-(2,5-dimethoxyphenyl)thiazol-2-yl)-N-(3-(dimethylamino)propyl)-2-fluorobenzamide] | Activity (CHEK2): CHEK2
17 | GSK-3-α |  |  | COc1ccc(OC)c(-c2csc(N(CCCN(C)C)C(C)=O)n2)c1 [N-(4-(2,5-dimethoxyphenyl)thiazol-2-yl)-N-(3-(dimethylamino)propyl)acetamide] | 
18 |  | AKT1 |  | COc1ccc(OC)c(-c2csc(N(CCCN(C)C)C(=O)c3cccs3)n2)c1 [N-(4-(2,5-dimethoxyphenyl)thiazol-2-yl)-N-(3-(dimethylamino)propyl)thiophene-2-carboxamide] | Activity (CHEK2): CHEK2
19 |  | AKT1 |  | COc1ccc(-c2csc(N(CCCN3CCN(C)CC3)C(=O)c3ccccc3)n2)cc1 [N-(4-(4-methoxyphenyl)thiazol-2-yl)-N-(3-(4-methylpiperazin-1-yl)propyl)benzamide] | Activity (CHEK2): CHEK2
